Patent US20090312336A1, “DIHYDROPTERIDINE COMPOUNDS AS ANTI PROLIFERATIVE AGENTS” (ASTRAZENECA AB, priority 2006, published 2009)
pIC50: −log10 of the molar value. Read-outs that look alike come from different tables or passages of the source.

How the values were obtained:
[1] = molecular target: T1, recombinant Plk1 (Homo sapiens, UniProt P53350); assay: In vitro Plk1 enzyme assay (SPA); format: biochemical
T1 construct: The full-length Plk1 protein is expressed in insect cells as an N-terminal 6His tag fusion; 6His (N); made in house; host or cells: insect cells (Plk1); E. coli (GST-Cdc25C substrate)
Description: The assay uses Scintillation Proximity Assay (SPA) technology (Antonsson et al., Analytical Biochemistry, 1999, 267: 294-299) to determine the ability of test compounds to inhibit phosphorylation by recombinant Plk1. The full-length Plk1 protein is expressed in insect cells as an N-terminal 6His tag fusion and purified by standard Nickel chelate purification techniques using the His tag.
The amino terminal fragment of Cdc25C (encoding residues 1-165) is expressed in E. coli as a GST fusion and purified using the GST tag by standard purification techniques.
Test compounds were prepared as 10 mM stock solutions in dimethyl sulphoxide (DMSO) and diluted into water as required to give a range of final assay concentrations. Aliquots (5 μl) of each compound dilution were dispensed into a well of a 384-well flat bottom white polystyrene plate (Matrix, Catalogue No. 4316). A 35 μl mixture of recombinant purified Plk1 enzyme (12 ng/well), purified GST-Cdc25C (150 ng/well), adenosine triphosphate (ATP; 64 nM), ^33P-labelled adenosine triphosphate (^33P-ATP; 60 nCi/well) in a buffer solution [comprising 50 mM HEPES pH7.5 buffer, 10 mM manganese chloride (MnCl2), 1 mM dithiothreitol (DTT), 1 mg/ml bovine serum albumin (BSA), 100 μM sodium vanadate (Na3VO4), 100 μM sodium fluoride (NaF) and 10 mM sodium glycerophosphate] was added and the reactions incubated at ambient temperature for 90 minutes.
Reactions were stopped by addition of EDTA (110 mM) and the Cdc25C substrate captured via its GST tag to anti-GST antibody (Molecular Probes, Cat No A-5800) coated Protein A PVT SPA beads (Amersham Biosciences, Catalogue No. RPQ0019; 250 μg/well) in 50 mM HEPES pH7.5 buffer containing 0.05% (w/v) sodium azide and incubated for up to 2 hours, followed by the addition of 20 μl of 4M caesium chloride (final assay concentration of 1M). Plates were then left in the dark overnight before counting on a Packard TopCount NXT.
Radiolabelled phosphorylated substrate is formed in situ as a result of Plk1 mediated phosphorylation. The SPA beads contain a scintillant that can be stimulated to emit light. This stimulation only occurs when a radiolabelled phosphorylated substrate is bound to the surface of the coated SPA bead causing the emission of blue light that can be measured on a scintillation counter. Accordingly, the extent of Plk1 mediated Cdc25C phosphorylation was assessed. The raw assay data were then analysed by non-linear regression analysis and Plk1 enzyme inhibition for a given test compound is expressed as an IC50 value.

[2] = tested on: human colon tumour cell line HT29; assay: Cellular assay: phosphohistone H3 mitotic marker in HT29 cells; format: cell-based; settings: HT-29, 24 h, phosphohistone H3 staining
Method: Chromosome condensation in mitosis is accompanied by phosphorylation of histone H3 on serine 10. Dephosphorylation begins in anaphase and ends at early telophase, thus histone H3 serine 10 phosphorylation acts as an excellent mitotic marker and is used to determine the ability of compounds of the present invention to block cells in mitosis.
Cells of the human colon tumour cell line HT29 were seeded into 96 well black plates (Costar, Catalogue No 3904) in phenol red free Dulbecco's Modified Eagles Medium (DMEM) supplemented with 10% (v/v) FCS and 1% (v/v) L-Glutamine and incubated overnight at 37° C. […] Cells were again washed with PBS and incubated with 50 μl secondary antibody (1:1000 Alexa Fluor 488 goat anti-rabbit (Molecular Probes Cat No A-11008) and Hoechst (1:10000) diluted in PBS 0.05% (v/v) Tween 20 and left for 1 hour at room temperature in the dark. Cells were washed with PBS then covered with fresh PBS and stored at 4° C. until analysis. Images are acquired and analysed in an automated manner using the Cellomics ArrayScan II or VTi. In this assay both hoechst and phosphohistone H3 staining are measured. Hoechst staining generates a valid cell count while phosphohistone H3 staining determines the number of mitotic cells. […] The raw assay data were analysed by non-linear regression analysis and used to determine an IC50 value for each compound.

[3] = Plk1 enzyme, class symbols for IC50, read-out: Kinase Inhibition

T1 sequence (P53350 whole entry, the tested form may be a part): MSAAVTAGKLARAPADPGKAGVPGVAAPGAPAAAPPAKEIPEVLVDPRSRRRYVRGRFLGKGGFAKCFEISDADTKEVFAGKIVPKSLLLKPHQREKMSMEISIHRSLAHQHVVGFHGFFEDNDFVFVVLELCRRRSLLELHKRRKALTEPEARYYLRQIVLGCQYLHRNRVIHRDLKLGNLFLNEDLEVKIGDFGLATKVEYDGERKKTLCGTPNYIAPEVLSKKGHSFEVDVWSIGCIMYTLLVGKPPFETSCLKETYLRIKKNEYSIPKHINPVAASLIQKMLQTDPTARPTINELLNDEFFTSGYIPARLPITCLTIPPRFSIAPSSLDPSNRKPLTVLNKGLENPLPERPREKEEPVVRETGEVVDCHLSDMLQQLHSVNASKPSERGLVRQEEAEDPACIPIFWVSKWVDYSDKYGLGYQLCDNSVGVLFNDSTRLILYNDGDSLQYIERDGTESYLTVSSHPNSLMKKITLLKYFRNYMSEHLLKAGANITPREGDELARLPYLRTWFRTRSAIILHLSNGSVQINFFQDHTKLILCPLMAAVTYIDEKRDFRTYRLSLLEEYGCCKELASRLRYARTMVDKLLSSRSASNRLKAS

SMILES | pIC50 [1, 3] | pIC50 ([1]; Plk1 enzyme assay, read-out: IC50 value in the enzyme assay) | pIC50 [2]
CC[C@@H]1CN(C)c2cnc(Nc3ccc(C(=O)NCC(C)(C)CN(C)C)cc3OC)nc2N1C1CCCC1 [Example 2, 4-[[(7R)-8-Cyclopentyl-7-ethyl-5-methyl-6,7-dihydropteridin-2-yl]amino]-N-(3-dimethylamino-2,2-dimethyl-propyl)-3-methoxy-benzamide] | > 5.52 | – | –
CC[C@@H]1CN(C)c2cnc(Nc3ccc(CNCC(C)(C)CN(C)C)cc3OC)nc2N1C1CCCC1 [Example 3, N-[[4-[[(7R)-8-Cyclopentyl-7-ethyl-5-methyl-6,7-dihydropteridin-2-yl]amino]-3-methoxy-phenyl]methyl]-N′,N′,2,2-tetramethyl-propane-1,3-diamine] | 4.82 to 5.22 | – | –
CC[C@@H]1CN(C)c2cnc(Nc3ccc(CNC4CCN(C)CC4)c(F)c3)nc2N1C1CCCC1 [Example 4, (7R)-8-Cyclopentyl-7-ethyl-N-[3-fluoro-4-[[(1-methyl-4-piperidyl)amino]methyl]phenyl]-5-methyl-6,7-dihydropteridin-2-amine] | 5.22 to 5.52 | – | –
CC[C@@H]1CN(CC)c2cnc(Nc3ccc(C(=O)NC4CCN(C)CC4)cc3OC)nc2N1C1CCCC1 [Example 5, 4-[[(7R)-8-Cyclopentyl-5,7-diethyl-6,7-dihydropteridin-2-yl]amino]-3-methoxy-N-(1-methyl-4-piperidyl)benzamide] | > 5.52 | – | –
COc1cc(C(=O)NC2CCN(C)CC2)ccc1Nc1ncc2c(n1)N(C1CCCC1)[C@H](C1CC1)CN2C [Example 6, 4-{[(7R)-8-Cyclopentyl-7-cyclopropyl-5-methyl-5,6,7,8-tetrahydropteridin-2-yl]amino}-3-methoxy-N-(1-methylpiperidin-4-yl)benzamide] | > 5.52 | 6.16 | 6.59

More lines, now with the values ahead:

pIC50 [1, 3] | pIC50 ([1]; Plk1 enzyme assay, read-out: IC50 value in the enzyme assay) | pIC50 [2] | SMILES
> 5.52 | – | – | CC[C@@H]1CN(C)c2cnc(Nc3ccc(C(=O)NC4CCN(C)CC4)cc3OC)nc2N1C1CCCC1 [Example 1, 4-[[(7R)-8-Cyclopentyl-7-ethyl-5-methyl-6,7-dihydropteridin-2-yl]amino]-3-methoxy-N-(1-methyl-4-piperidyl)benzamide]
> 5.52 | – | – | CCC[C@@H]1CN(C)c2cnc(Nc3ccc(C(=O)NC4CCN(C)CC4)cc3OC)nc2N1C1CCCC1 [Example 7, 4-{[(7R)-8-Cyclopentyl-5-methyl-7-propyl-5,6,7,8-tetrahydropteridin-2-yl]amino}-3-methoxy-N-(1-methylpiperidin-4-yl)benzamide]
> 5.52 | – | – | CCOc1cc(C(=O)NC2CCN(C)CC2)ccc1Nc1ncc2c(n1)N(C1CCCC1)[C@H](CC)CN2C [Example 8, 4-[[(7R)-8-Cyclopentyl-7-ethyl-5-methyl-6,7-dihydropteridin-2-yl]amino]-3-ethoxy-N-(1-methyl-4-piperidyl)benzamide]
